Test results taken from patent US10280149B2, “Therapeutic compounds and uses thereof” (GENENTECH, INC., priority 2015, dated 2019).

What follows are compounds tested against Full length KDM2B (Homo sapiens (Human), UniProt Q8NHM5) (assay: KDM2B TR-FRET assay for determining inhibitor IC50). Details: TR-FRET (HTRF), biotin-H3K36me2 peptide substrate, 2-OG 0.3 μM or 6 μM.
Full length KDM2B, sequence (Q8NHM5 whole entry): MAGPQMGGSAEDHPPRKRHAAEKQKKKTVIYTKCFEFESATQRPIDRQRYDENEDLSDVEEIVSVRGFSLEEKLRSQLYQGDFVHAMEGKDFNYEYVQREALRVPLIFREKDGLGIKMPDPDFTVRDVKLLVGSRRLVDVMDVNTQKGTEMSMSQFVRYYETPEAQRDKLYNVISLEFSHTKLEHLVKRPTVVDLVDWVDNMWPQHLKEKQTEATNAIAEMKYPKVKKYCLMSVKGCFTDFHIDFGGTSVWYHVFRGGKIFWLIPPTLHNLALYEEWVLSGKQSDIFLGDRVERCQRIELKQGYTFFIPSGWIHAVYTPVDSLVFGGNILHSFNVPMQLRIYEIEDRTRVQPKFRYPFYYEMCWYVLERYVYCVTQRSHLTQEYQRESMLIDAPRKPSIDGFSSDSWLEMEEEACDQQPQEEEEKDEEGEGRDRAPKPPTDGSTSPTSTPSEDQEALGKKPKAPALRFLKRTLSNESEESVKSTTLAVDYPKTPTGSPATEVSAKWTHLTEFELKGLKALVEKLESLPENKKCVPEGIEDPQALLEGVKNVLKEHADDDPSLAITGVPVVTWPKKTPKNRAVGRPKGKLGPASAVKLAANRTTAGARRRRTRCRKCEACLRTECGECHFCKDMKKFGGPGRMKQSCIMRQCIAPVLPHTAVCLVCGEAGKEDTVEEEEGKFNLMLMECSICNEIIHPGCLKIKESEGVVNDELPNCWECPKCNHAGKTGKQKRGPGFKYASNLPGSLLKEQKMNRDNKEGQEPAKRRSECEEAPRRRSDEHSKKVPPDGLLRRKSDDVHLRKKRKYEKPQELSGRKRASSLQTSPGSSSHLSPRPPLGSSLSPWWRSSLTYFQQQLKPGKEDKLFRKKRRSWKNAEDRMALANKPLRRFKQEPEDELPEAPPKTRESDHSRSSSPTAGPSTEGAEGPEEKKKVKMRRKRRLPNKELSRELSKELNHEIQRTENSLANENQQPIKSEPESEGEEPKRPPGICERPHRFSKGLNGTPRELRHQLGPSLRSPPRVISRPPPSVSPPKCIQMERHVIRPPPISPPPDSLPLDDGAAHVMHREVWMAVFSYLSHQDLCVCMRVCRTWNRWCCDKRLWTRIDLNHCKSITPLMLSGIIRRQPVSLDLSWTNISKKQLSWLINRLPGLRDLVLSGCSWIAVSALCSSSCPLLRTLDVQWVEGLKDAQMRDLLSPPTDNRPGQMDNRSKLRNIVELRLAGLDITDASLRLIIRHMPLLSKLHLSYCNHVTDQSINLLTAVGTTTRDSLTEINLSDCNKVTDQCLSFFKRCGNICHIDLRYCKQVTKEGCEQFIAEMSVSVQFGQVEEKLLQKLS
Type: biochemical
Excerpt: KDM2B TR-FRET Assay for Determining Inhibitor IC50
The KDM2B TR-FRET Assay described above represents an additional embodiment of the invention.
With `COc1ccc2cc(C(=O)[C@@H]3CN(C4CCC4)CC[C@@H]3C(C)C)ccc2c1CC#N` (stereo in doubt) [Example 186a, 2-(6-(1-cyclobutyl-4-isopropylpiperidine-3-carbonyl)-2-methoxynaphthalen-1-yl)acetonitrile] the IC50 was 70.1 nM. For `COc1ccc2cc(C(=O)[C@H]3CN(C4CCC4)CC[C@H]3C(C)C)ccc2c1CC#N` (stereo in doubt) [Example 186b, 2-(6-(1-cyclobutyl-4-isopropylpiperidine-3-carbonyl)-2-methoxynaphthalen-1-yl)acetonitrile], the IC50 was 2.12 nM. `O=C(c1cccc(Cl)c1)C1CCCN(C2CCCC2)C1` (centres unmarked) [Example 3, (3-chlorophenyl)-(1-cyclopentyl-3-piperidyl)methanone] was tested, and the IC50 was 23000 nM. `COc1ccc(C(=O)C2CCCN(C3CCC3)C2)c(OC)c1` (centres unmarked) [Example 5, (1-cyclobutyl-3-piperidyl)-(2,4-dimethoxyphenyl)methanone] gave an IC50 of 2500 nM. In the case of `COc1ccc2cc(C(=O)C3CCCN(C4CCOCC4)C3)ccc2c1` (centres unmarked) [Example 6, (6-methoxy-2-naphthyl)-(1-tetrahydropyran-4-yl-3-piperidyl)methanone], the IC50 is reported as 2600 nM. With `COc1ccc2cc(C(=O)[C@@H]3CCCN(CC4CC4)C3)ccc2c1` [Example 7, [(3R)-1-(cyclopropylmethyl)-3-piperidyl]-(6-methoxy-2-naphthyl)methanone] the IC50 was 123 nM. For `COc1ccc2cc(C(=O)[C@H]3CCCN(CC4CC4)C3)ccc2c1` [Example 8, [(3S)-1-(cyclopropylmethyl)-3-piperidyl]-(6-methoxy-2-naphthyl)methanone], the IC50 was 2700 nM. Compound `COc1ccc2cc(C(=O)[C@@H]3CCCN(C4CCCC4)C3)ccc2c1` [Example 9, [(3R)-1-cyclopentyl-3-piperidyl]-(6-methoxy-2-naphthyl)methanone] has an IC50 of 3000 nM. `COc1ccc2cc(C(=O)[C@H]3CCCN(C4CCCC4)C3)ccc2c1` [Example 10, [(3S)-1-cyclopentyl-3-piperidyl]-(6-methoxy-2-naphthyl)methanone] showed an IC50 of 56.6 nM. For `COc1ccc(C(=O)[C@H]2CCCN(C3CCC3)C2)c(OC)c1` [Example 11, [(3S)-1-cyclobutyl-3-piperidyl]-(2,4-dimethoxyphenyl)methanone], the IC50 was 153 nM. For `COc1ccc(C(=O)[C@@H]2CCCN(C3CCC3)C2)c(OC)c1` [Example 12, [(3R)-1-cyclobutyl-3-piperidyl]-(2,4-dimethoxyphenyl)methanone], the IC50 was 9000 nM. `COc1ccc2cc(C(=O)C3CCCN(C4COC4)C3)ccc2c1` (centres unmarked) [Example 14, (6-methoxy-2-naphthyl)-[1-(oxetan-3-yl)-3-piperidyl]methanone] was tested, and the IC50 was 1200 nM. `COc1ccc2cc(C(=O)C3CCCN(C4CCOC4)C3)ccc2c1` (centres unmarked) [Example 15, (6-methoxy-2-naphthyl)-(1-tetrahydrofuran-3-yl-3-piperidyl)methanone] was tested, and the IC50 was 430 nM. Work on `CCCN1CCCC(C(=O)c2ccc3cc(OC)ccc3c2)C1` (centres unmarked) [Example 18, (6-methoxy-2-naphthyl)-(1-propyl-3-piperidyl)methanone] yielded an IC50 of 161 nM. `O=C(c1cccc(Oc2ccccc2)c1)C1CCCN(CC2CC2)C1` (centres unmarked) [Example 21, [1-(cyclopropylmethyl)-3-piperidyl]-(3-phenoxyphenyl)methanone] gave an IC50 of 461 nM. For `O=C(c1ccc(C(F)(F)F)cc1)C1CCCN(CC2CC2)C1` (centres unmarked) [Example 22, [1-(cyclopropylmethyl)-3-piperidyl]-[4-(trifluoromethyl)phenyl]methanone], the IC50 was 1400 nM. Compound `O=C(c1ccc(Oc2ccccc2)cc1)C1CCCN(CC2CC2)C1` (centres unmarked) [Example 23, [1-(cyclopropylmethyl)-3-piperidyl]-(4-phenoxyphenyl)methanone] has an IC50 of 2100 nM. Work on `O=C(c1cccc(-c2ccccc2)c1)C1CCCN(CC2CC2)C1` (centres unmarked) [Example 25, [1-(cyclopropylmethyl)-3-piperidyl]-(3-phenylphenyl)methanone] yielded an IC50 of 1400 nM. With `O=C(c1cc(F)c2ccccc2c1)C1CCCN(CC2CC2)C1` (centres unmarked) [Example 26, [1-(cyclopropylmethyl)-3-piperidyl]-(4-fluoro-2-naphthyl)methanone] the IC50 was 551 nM. For `O=C(c1cccc(Oc2ccc(F)cc2)c1)C1CCCN(CC2CC2)C1` (centres unmarked) [Example 27, [1-(cyclopropylmethyl)-3-piperidyl]-[3-(4-fluorophenoxy)phenyl]methanone], the IC50 was 221 nM. Work on `O=C(c1cccc(Oc2ccccc2)c1)[C@H]1CCCN(CC2CC2)C1` [Example 28, [(3S)-1-(cyclopropylmethyl)-3-piperidyl]-(3-phenoxyphenyl)methanone] yielded an IC50 of 1700 nM. Compound `O=C(c1cccc(Oc2ccccc2)c1)[C@@H]1CCCN(CC2CC2)C1` [Example 29, [(3R)-1-(cyclopropylmethyl)-3-piperidyl]-(3-phenoxyphenyl)methanone] has an IC50 of 148 nM. Compound `O=C(c1ccc(Oc2ccccc2)cc1)[C@@H]1CCCN(CC2CC2)C1` [Example 30, [(3R)-1-(cyclopropylmethyl)-3-piperidyl]-(4-phenoxyphenyl)methanone] has an IC50 of 5900 nM. Work on `O=C(c1ccc(Oc2ccccc2)cc1)[C@H]1CCCN(CC2CC2)C1` [Example 31, [(3S)-1-(cyclopropylmethyl)-3-piperidyl]-(4-phenoxyphenyl)methanone] yielded an IC50 of 136 nM. For `O=C(c1ccc(-c2ccccc2)cc1)[C@@H]1CCCN(CC2CC2)C1` [Example 32, [(3R)-1-(cyclopropylmethyl)-3-piperidyl]-(4-phenylphenyl)methanone], the IC50 was 4100 nM. Work on `O=C(c1ccc(-c2ccccc2)cc1)[C@H]1CCCN(CC2CC2)C1` [Example 33, [(3S)-1-(cyclopropylmethyl)-3-piperidyl]-(4-phenylphenyl)methanone] yielded an IC50 of 95.4 nM. `Cc1ccc(-c2ccc(C(=O)C3CCCN(CC4CC4)C3)cc2)cc1` (centres unmarked) [Example 34, [1-(cyclopropylmethyl)-3-piperidyl]-[4-(p-tolyl)phenyl]methanone] showed an IC50 of 402 nM. In the case of `O=C(c1cc(CO)c2ccccc2c1)C1CCCN(CC2CC2)C1` (centres unmarked) [Example 35, [1-(cyclopropylmethyl)-3-piperidyl]-[4-(hydroxymethyl)-2-naphthyl]methanone], the IC50 is reported as 169 nM. Compound `O=C(c1ccc(-c2ccccc2)nc1)C1CCCN(CC2CC2)C1` (centres unmarked) [Example 36, [1-(cyclopropylmethyl)-3-piperidyl]-(6-phenyl-3-pyridyl)methanone] has an IC50 of 533 nM. In the case of `NCc1cc(C(=O)C2CCCN(CC3CC3)C2)cc2ccccc12` (centres unmarked) [Example 37, [4-(aminomethyl)-2-naphthyl]-[1-(cyclopropylmethyl)-3-piperidyl]methanone], the IC50 is reported as 620 nM. `O=C(c1ccc(-c2ccccn2)cc1)C1CCCN(CC2CC2)C1` (centres unmarked) [Example 38, [1-(cyclopropylmethyl)-3-piperidyl]-[4-(2-pyridyl)phenyl]methanone] showed an IC50 of 596 nM. Work on `CC(=O)NCc1cc(C(=O)C2CCCN(CC3CC3)C2)cc2ccccc12` (centres unmarked) [Example 39, N-[[3-[1-(cyclopropylmethyl)piperidine-3-carbonyl]-1-naphthyl]methyl]acetamide] yielded an IC50 of 460 nM. `CNC(=O)c1cc(C(=O)C2CCCN(CC3CC3)C2)cc2ccccc12` (centres unmarked) [Example 40, 3-[1-(cyclopropylmethyl)piperidine-3-carbonyl]-N-methyl-naphthalene-1-carboxamide] gave an IC50 of 626 nM. `CNC(=O)c1cc(C(=O)C2CCCN(C3CCCC3)C2)cc2ccccc12` (centres unmarked) [Example 41, 3-(1-cyclopentylpiperidine-3-carbonyl)-N-methyl-naphthalene-1-carboxamide] gave an IC50 of 700 nM. Compound `CNC(=O)c1cc(C(=O)C2CCCN(C3CCC3)C2)cc2ccccc12` (centres unmarked) [Example 42, 3-(1-cyclobutylpiperidine-3-carbonyl)-N-methyl-naphthalene-1-carboxamide] has an IC50 of 243 nM. For `N#Cc1cc(C(=O)C2CCCN(CC3CC3)C2)cc2ccccc12` (centres unmarked) [Example 43, 3-[1-(cyclopropylmethyl)piperidine-3-carbonyl]naphthalene-1-carbonitrile], the IC50 was 143 nM. In the case of `N#Cc1cc(C(=O)C2CCCN(C3CCC3)C2)cc2ccccc12` (centres unmarked) [Example 44, 3-(1-cyclobutylpiperidine-3-carbonyl)naphthalene-1-carbonitrile], the IC50 is reported as 101 nM. `N#Cc1cc(C(=O)C2CCCN(C3CCCC3)C2)cc2ccccc12` (centres unmarked) [Example 45, 3-(1-cyclopentylpiperidine-3-carbonyl)naphthalene-1-carbonitrile] was tested, and the IC50 was 267 nM. Compound `NC(=O)c1cc(C(=O)C2CCCN(C3CCCC3)C2)cc2ccccc12` (centres unmarked) [Example 46, 3-(1-cyclopentylpiperidine-3-carbonyl)naphthalene-1-carboxamide] has an IC50 of 209 nM. `NC(=O)c1cc(C(=O)C2CCCN(C3CCC3)C2)cc2ccccc12` (centres unmarked) [Example 47, 3-(1-cyclobutylpiperidine-3-carbonyl)naphthalene-1-carboxamide] gave an IC50 of 99.7 nM. `NC(=O)c1cc(C(=O)C2CCCN(CC3CC3)C2)cc2ccccc12` (centres unmarked) [Example 48, 3-[1-(cyclopropylmethyl)piperidine-3-carbonyl]naphthalene-1-carboxamide] gave an IC50 of 180 nM. Work on `COc1ccc2cc(C(=O)C3CCCN(CC4CC4)C3)ccc2c1C` (centres unmarked) [Example 49, [1-(cyclopropylmethyl)-3-piperidyl]-(6-methoxy-5-methyl-2-naphthyl)methanone] yielded an IC50 of 163 nM. Compound `CCCN1CCCC(C(=O)c2ccc3c(C)c(OC)ccc3c2)C1` (centres unmarked) [Example 50, (6-methoxy-5-methyl-2-naphthyl)-(1-propyl-3-piperidyl)methanone] has an IC50 of 26 nM. Compound `COc1ccc2cc(C(=O)C3CCCN(C4CCCC4)C3)ccc2c1C` (centres unmarked) [Example 51, (1-cyclopentyl-3-piperidyl)-(6-methoxy-5-methyl-2-naphthyl)methanone] has an IC50 of 118 nM. In the case of `COc1ccc2cc(C(=O)C3CCCN(C4CCC4)C3)ccc2c1C` (centres unmarked) [Example 52, (1-cyclobutyl-3-piperidyl)-(6-methoxy-5-methyl-2-naphthyl)methanone], the IC50 is reported as 39.4 nM. Compound `COc1ccc2cc(C(=O)C3CCCN(CC4CC4)C3)ccc2c1CC#N` (centres unmarked) [Example 53, 2-[6-[1-(cyclopropylmethyl)piperidine-3-carbonyl]-2-methoxy-1-naphthyl]acetonitrile] has an IC50 of 33.5 nM. Compound `COc1ccc2cc(C(=O)C3CCCN(C4CCCC4)C3)ccc2c1CC#N` (centres unmarked) [Example 54, 2-[6-(1-cyclopentylpiperidine-3-carbonyl)-2-methoxy-1-naphthyl]acetonitrile] has an IC50 of 39.5 nM.
